Measured values: US9593305B2, “Differentiation of pluripotent stem cells” (Janssen Biotech, Inc., priority 2008, dated 2017)

Tested on: H1 human embryonic stem cells
Assay: Compounds and growth factors with low dose activin A (Example 9, Table 9)
Format: cell-based
Procedure: Clusters of H1 human embryonic stem cells were grown on reduced growth factor […]™ (Invitrogen; Cat #356231)-coated tissue culture plastic. Cells were passaged using collagenase (Invitrogen; Cat #17104-019) treatment and gentle scraping, washed to remove residual enzyme, and plated with even dispersal at a ratio of 1:1 (surface area) on reduced growth factor […]™-coated 96-well black plates (Packard ViewPlates; PerkinElmer; Cat #6005182) using volumes of 100 μl/well. Cells were allowed to attach as clusters and then recover log phase growth over a 1 to 3 day period, feeding daily with MEF conditioned medium supplemented with 8 ng/ml bFGF (R&D Systems; Cat #233-FB). Plates were maintained at 37° C., 5% CO2 in a humidified box throughout the duration of assay.
Stocks of growth factors purchased from R&D Systems were EGF (Cat #236-EG), FGF4 (Cat #235-F4), PDGF-A (Cat #221-AA), PDGF-D (Cat #1159-SB), PDGF-A/B (Cat #222-AB), VEGF (Cat #293-VE), and GDF-8 (Cat #788-08). Activin A was purchased from PeproTech (Cat #). Muscimol was purchased from Tocris (Cat #0289). All growth factors were solubilized in PBS with 0.1% BSA (Sigma; Cat #A7888) and stored frozen at −80° C. Muscimol was solubilized in 100% DMSO (Sigma; Cat #D2650) and stored frozen at −80° C. The compounds were available as 5 mM stocks in 96-well plate format, solubilized in 100% DMSO and stored at −80° C. The compounds were further diluted to an intermediate concentration of 0.2 mM in 50 mM HEPES (Invitrogen; Cat #15630-080), 20% DMSO and stored at 4° C. All growth factors and inhibitors were prepared in a deep well, 96-well polypropylene plate, diluted to 5× intermediate stocks in DMEM:F12 base medium at the beginning of assay and stored at 4° C.
A secondary screening assay was conducted, testing in triplicate and feeding on alternate days over the four-day assay timeframe. Assays were initiated by aspirating culture medium from each well followed by three washes in PBS to remove residual growth factors and serum. Test volumes of 80 μl per well were added back containing DMEM:F12 base medium (Invitrogen; Cat #11330-032) supplemented with 0.625% FCS (HyClone; Cat #SH30070.03), 25 ng/ml Wnt3a (R&D Systems), 12.5 ng/ml activin A, and 3.125 μM compound plus 20 μl 5× stock of growth factor or small molecule to yield a final concentration of 0.5% FCS, 20 ng/ml Wnt3a, 10 ng/ml activin A, and 2.5 μM compound. All remaining growth factors were tested at a final assay concentration of 50 ng/ml (EGF, FGF4, PDGF-A, PDGF-A/B, VEGF), with the exception of GDF-8 used at 25 ng/ml. Final assay concentration of muscimol was 20 μM. Positive control wells (100 μl/well) contained the same base medium supplemented with 0.5% FCS, 20 ng/ml Wnt3a and 10 ng/ml (low dose) or 100 ng/ml (high dose) activin A. Negative control wells (100 μl/well) contained the same base medium with 0.5% FCS and 20 ng/ml Wnt3a, omitting activin A.
Positive control wells (100 μl/well) contained the same base medium supplemented with 2% FCS and 10 ng/ml or 100 ng/ml activin A, omitting Wnt3a. Negative control wells (100 μl/well) contained the same base medium with 2% FCS, omitting both activin A and Wnt3a.
At the conclusion of four-days of culture, assay plates were washed twice with PBS, fixed with 4% paraformaldehyde (Alexis Biochemical; Cat #ALX-350-011) at room temperature for 20 minutes, then washed three times with PBS and permeabilized with 0.5% Triton X-100 (Sigma; Cat #T8760-2) for 20 minutes at room temperature. Cells were washed again three times with PBS and blocked with 4% chicken serum (Invitrogen; Cat #16110082) in PBS for 30 minutes at room temperature. Primary antibody (goat anti-human SOX17; R&D Systems; cat #AF1924) was diluted 1:100 in 4% chicken serum and added to each well for one hour at room temperature. […]

[1] = 10 ng/ml AA + compound + EGF + FGF4 + PDGF-A + Muscimol + Wnt3a
[2] = 10 ng/ml AA + compound + EGF + FGF4 + PDGF-A + VEGF + PDGF-D + Muscimol + GDF8 + Wnt3a
[3] = 10 ng/ml AA + compound + EGF + FGF4 + PDGF-AB + VEGF + Wnt3a
[4] = 10 ng/ml AA + compound + EGF + FGF4 + PDGF-AB + Wnt3a
[5] = 10 ng/ml AA + compound + EGF + FGF4 + Wnt3a
[6] = 10 ng/ml AA + compound + EGF + Wnt3a
[7] = 10 ng/ml AA + compound + FGF4 + Wnt3a

`CN1CCC(=O)NCCCNc2ncccc2-c2ncnc(n2)Nc2cccc(c2)C1` [Compound 39, 9-Methyl-2,3,4,5,7,8,9,10-octahydro-16H-17,21-(azeno)-11,15-(metheno)pyrido[3,2-g][1,3,5,9,13,17]hexaazacyclotricosin-6(1H)-one] was tested, and the “Cell Number, % of positive control” value [1] was 37.64 % of positive control, the “Cell Number, Average Total Cell Number” value [1] was 2879 and the “Sox17 Expression, % of positive control” value [1] was 3.24 % of positive control. For the same compound, the “Sox17 Expression, Average Total Intensity” value [1] was 3.61E+06, the “Cell Number, % of positive control” value [2] was 75.00 % of positive control and the “Cell Number, Average Total Cell Number” value [2] was 5738. The “Sox17 Expression, % of positive control” value [2] was 19.24 % of positive control, the “Sox17 Expression, Average Total Intensity” value [2] was 2.14E+07 and the “Cell Number, % of positive control” value [3] was 33.08 % of positive control. For the same compound, the “Cell Number, Average Total Cell Number” value [3] was 2531, the “Sox17 Expression, % of positive control” value [3] was 2.53 % of positive control and the “Sox17 Expression, Average Total Intensity” value [3] was 2.82E+06. The “Cell Number, % of positive control” value [4] was 39.07 % of positive control, the “Cell Number, Average Total Cell Number” value [4] was 2989 and the “Sox17 Expression, % of positive control” value [4] was −0.02 % of positive control. The “Sox17 Expression, Average Total Intensity” value [4] was −1.78E+04, the “Cell Number, % of positive control” value [5] was 9.59 % of positive control and the “Cell Number, Average Total Cell Number” value [5] was 734. For the same compound, the “Sox17 Expression, % of positive control” value [5] was −3.53 % of positive control, the “Sox17 Expression, Average Total Intensity” value [5] was −3.93E+06 and the “Cell Number, % of positive control” value [6] was 2.75 % of positive control. The “Cell Number, Average Total Cell Number” value [6] was 211, the “Sox17 Expression, % of positive control” value [6] was −4.08 % of positive control and the “Sox17 Expression, Average Total Intensity” value [6] was −4.54E+06. The “Cell Number, % of positive control” value [7] was 6.81 % of positive control, the “Cell Number, Average Total Cell Number” value [7] was 521 and the “Sox17 Expression, % of positive control” value [7] was −4.01 % of positive control. For the same compound, the “Sox17 Expression, Average Total Intensity” value [7] was −4.46E+06, the “Cell Number, % of positive control” value (10 ng/ml AA + compound + Wnt3a) was 6.78 % of positive control and the “Cell Number, Average Total Cell Number” value (10 ng/ml AA + compound + Wnt3a) was 518. For the same compound, the “Sox17 Expression, % of positive control” value (10 ng/ml AA + compound + Wnt3a) was −2.13 % of positive control and the “Sox17 Expression, Average Total Intensity” value (10 ng/ml AA + compound + Wnt3a) was −2.37E+06.
In the case of `CCN1CCCc2cccc(c2)-c2ncnc(n2)Nc2cccc(c2)CCNC(=O)C1` [Compound 29, 18-Ethyl-3,5,7,15,18,28-hexaazatetracyclo[20.3.1.1˜2,6˜0.1˜8,12˜]octacosa-1(26), 2(28), 3,5,8(27), 9,11,22,24-nonaen-16-one], the “Cell Number, % of positive control” value [1] is reported as 76.26 % of positive control, the “Cell Number, Average Total Cell Number” value [1] is reported as 4676 and the “Sox17 Expression, % of positive control” value [1] is reported as 21.11 % of positive control. The “Sox17 Expression, Average Total Intensity” value [1] was 2.41E+07, the “Cell Number, % of positive control” value [2] was 44.63 % of positive control and the “Cell Number, Average Total Cell Number” value [2] was 2737. For the same compound, the “Sox17 Expression, % of positive control” value [2] was 21.10 % of positive control, the “Sox17 Expression, Average Total Intensity” value [2] was 2.41E+07 and the “Cell Number, % of positive control” value [3] was 37.23 % of positive control. For the same compound, the “Cell Number, Average Total Cell Number” value [3] was 2283, the “Sox17 Expression, % of positive control” value [3] was 4.88 % of positive control and the “Sox17 Expression, Average Total Intensity” value [3] was 5.59E+06. For the same compound, the “Cell Number, % of positive control” value [4] was 64.65 % of positive control, the “Cell Number, Average Total Cell Number” value [4] was 3964 and the “Sox17 Expression, % of positive control” value [4] was 19.89 % of positive control. For the same compound, the “Sox17 Expression, Average Total Intensity” value [4] was 2.27E+07, the “Cell Number, % of positive control” value [5] was 28.31 % of positive control and the “Cell Number, Average Total Cell Number” value [5] was 1736. For the same compound, the “Sox17 Expression, % of positive control” value [5] was 1.73 % of positive control, the “Sox17 Expression, Average Total Intensity” value [5] was 1.98E+06 and the “Cell Number, % of positive control” value [6] was 5.96 % of positive control. The “Cell Number, Average Total Cell Number” value [6] was 365, the “Sox17 Expression, % of positive control” value [6] was −4.25 % of positive control and the “Sox17 Expression, Average Total Intensity” value [6] was −4.86E+06. The “Cell Number, % of positive control” value [7] was 34.89 % of positive control, the “Cell Number, Average Total Cell Number” value [7] was 2139 and the “Sox17 Expression, % of positive control” value [7] was 6.10 % of positive control. The “Sox17 Expression, Average Total Intensity” value [7] was 6.98E+06, the “Cell Number, % of positive control” value (10 ng/ml AA + compound + Wnt3a) was 34.09 % of positive control and the “Cell Number, Average Total Cell Number” value (10 ng/ml AA + compound + Wnt3a) was 2090. For the same compound, the “Sox17 Expression, % of positive control” value (10 ng/ml AA + compound + Wnt3a) was 4.28 % of positive control and the “Sox17 Expression, Average Total Intensity” value (10 ng/ml AA + compound + Wnt3a) was 4.89E+06.
